In patent US8399417B2, “Food” (Ajinomoto Co., Inc., priority 2007, dated 2013):
Starred links: 1 amine or outer side, 2 acyl side, 3 side chain; linkers in the order of their positions; H or OH if unused. Non-standard residues stand in square brackets, D forms with d. No end group written: not given here. γGlu = O=C(O)[C@H](CCC(=O)[*:2])N[*:1]

Test: Fat-like richness and smoothness imparted to low-fat yogurt, quantitative sensory evaluation test
Assay type: in vivo, human
Settings: Table 10
Description: The quantitative sensory evaluation test was performed as follows. Each of γ-Glu-Val-Gly and cinacalcet was mixed with commercially-available low-fat yogurt (non-fat milk solids content: 10.0%, milk fat content: 1.0%) at a concentration of 0.00001 to 1 g/dl, and the intensity of imparting fat-like richness was measured.
It should be noted that after each sample was dissolved in low-fat yogurt, and a sample, the pH of which was lowered, was adjusted with NaOH so that the pH might be ±0.2 with respect to the pH of the […] free of a sample.
The sensory score for fat-like richness and smoothness was defined as follows: control (free of sample): 0 point; strong: 3 points; and very strong: 5 points. Then, the test was performed with n=12.

[γGlu]-Val-Gly
Fat-like richness (0.001 g/dl in low-fat yogurt (milk fat 1.0%), n=12, control 0, strong 3, very strong 5 points): 4.5 points | Taste profile (0.001 g/dl in low-fat yogurt): Taste is enhanced in middle | Smoothness (0.001 g/dl in low-fat yogurt, n=12, control 0, strong 3, very strong 5 points): 4.0 points
